Earlier results as cited in patent US20170348276A1 (Acerus Pharmaceutical Corporation, priority 2016, published 2017).

Columns and labels:
[1] = percent of the activity of Δ9-THC

| Structure (SMILES) | activity relative to Δ9-THC [1] [%] | Bioavailability from oil-based oral delivery (oil-based capsule, oral) [%] | oral bioavailability (oral administration, extensive first pass hepatic metabolism) [%] | bioavailability, oral-mucosal/sublingual delivery (sprays/lozenges) |
| --- | --- | --- | --- | --- |
| CCCCCc1cc(O)c2c(c1)OC(C)(C)c1ccc(C)cc1-2 [Cannabinol (CBN), Cannabinol] | 10 |  |  |  |
| C=C(C)[C@@H]1CCC(C)=C[C@H]1c1c(O)cc(CCCCC)cc1O [CBD, Cannabidiol] |  | ~6 | < 5 | up to 12% |
